In patent US5028726A, “Platinum amine sulfoxide complexes” (The University of Vermont and State Agricultural College, priority 1990, dated 1991):

Legend:
B16 melanoma = assay: In vivo efficacy, B16 melanoma, compared to cisplatin; design: species or system mice; conditions: tumor s.c., drug i.p.
L1210 leukemia = assay: In vivo efficacy, L1210 leukemia in mice; design: species or system murine (male BDR mice); conditions: days 1, 5 and 9
Method: (§1) Male BDR mice weighing 18-20 gm were purchased from the National Cancer Institute and housed in an environment having controlled humidity, temperature and photoperiods. The animals had food and water available ad libitum and wood chip bedding was changed daily. The L1210/0 and P388 murine leukemias were maintained as ascites tumors by weekly intraperitoneal (i.p.) inoculations of 10^6 cells For testing purposes, 10^6 tumor cells were inoculated i.p. (day 0) and mice were administered test compound i.p. on days 1, 5 and 9. Animals were observed daily for signs of toxicity and deaths and the day of death recorded for each animal that died during the 60 day observation period. The efficacy of each dose of compound tested was evaluated by calculating the percent increased life span determined by dividing the mean survival time of treated mice (using the day of death of only those animals that dies during the 60 day period) by the mean survival time of non-treated tumor bearing control animals (% T/C). […] An additional index of antitumor activity is the number of long term survivors defined as treated animals alive at the end of the study. The complexes tested and the results observed are summarized in Table 3 (L1210 leukemia) and in Table 4 (P338 leukemia). The data in Table 5 compares to the in vivo activity of [PtCl(n-Bu2 SO)](damch)NO3 with that of cisplatin.

P388 leukemia = assay: In vivo efficacy, P388 leukemia in mice; design: species or system murine (male BDR mice); conditions: days 1, 5 and 9
Method: as §1

[1] = system: L1210/0 murine leukemia cells; assay: In vitro cytotoxicity, DDP-sensitive L1210/0 cells; format: cell-based; conditions: L1210/0, DDP-sensitive; 72 hours; read-out: In Vitro Activity in L1210 Leukemia, L1210/O (ID50)
Method: (§2) L1210 murine leukemia cells sensitive to the cytotoxicity of DDP (L1210/0) were cultured as a suspension in McCoy's 5A medium supplemented with 5% donor horse serum and glutamine. L1210 cells, 40-60 fold resistant to DDP (L1210/DDP) or 30-fold resistant to [Pt(R,R-dach)SO4 ] (L1210/dach), were cultured in McCoy's 5A medium supplemented with 10% fetal bovine serum and glutamine. Both cell lines were grown in a humidified atmosphere to 5% CO2 : 95% air at 37° C. For testing purposes, cells were diluted to 5×10^4 cells/ml and 1 ml of cell suspension aliquoted to disposable tissue culture tubes. Test compound was then added to the appropriate tubes (40 μl/tube) to attain final concentrations of 0.01, 0.1, 1.0 and 10 μg/ml. After 72 hours, the cell concentrations of all tubes were determined using a Coulter counter. The percent growth inhibition for each drug concentration was then calculated and the ID 50 (concentration of drug required to inhibit cell growth by 50%) was derived. The resistance factor for each compound was obtained by dividing the ID50 (L1210/DDP) by the ID50 (L1210/0).
(§3) In Vitro Activity (μM) of [PtCl(R2 SO)(damch)]NO3 in L1210

L1210/dach cells = assay: In vitro cytotoxicity, [Pt(R,R-dach)SO4]-resistant L1210/dach cells; format: cell-based, murine
Method: as §2, §3
(§4) ^a R = Resistance Factor which is defined as ID50 (Sensitive or […]

L1210/DDP cells = assay: In vitro cytotoxicity, DDP-resistant L1210/DDP cells; format: cell-based, murine; conditions: for Resistance Factor (R), L1210/DDP: ID50 (L1210/DDP) divided by ID50 (L1210/0), 4320 min; for IC50: L1210/DDP, 40-60 fold resistant to DDP, 72 hours, read-out: In Vitro Activity in L1210 Leukemia, L1210/DDP (ID50)
Method: as §2, §3, §4

[2] = clinical, compared with parent complex cisplatin; cited from earlier work
[3] = dose 3 × 12.5, complex in saline

[PtCl(damch)(n-Bu2 SO)]^+ NO3 ^-
% T/C, B16 melanoma (B16 melanoma; dose 3 × 6.25, complex in saline): 154%
% T/C, B16 melanoma (B16 melanoma; [3]): 136%
figure in parentheses after % T/C (presumably long term survivors), B16 melanoma (B16 melanoma; [3]): 1/6
% T/C, B16 melanoma (B16 melanoma; dose 3 × 25, complex in saline): 188%
% T/C, L1210 leukemia (L1210 leukemia; 3 × 25 mg/kg (D5W) i.p.): 260%
% T/C, P388 leukemia (P388 leukemia; dose 3 × 6.25, i.p.): 167%
% T/C, P388 leukemia (P388 leukemia; dose 3 × 12.5, i.p.): 146%
% T/C, P388 leukemia (P388 leukemia; dose 3 × 25 (D5W), i.p.): 195%
% T/C, P388 leukemia (P388 leukemia; dose 3 × 25, i.p.): 189%
IC50 [1]: 390 nM
IC50 (L1210/dach cells; L1210/dach, 30-fold resistant to [Pt(R,R-dach)SO4], 72 hours, read-out: In Vitro Activity in L1210 Leukemia, L1210/dach (ID50)): 5360 nM
Resistance Factor (R), L1210/dach (L1210/dach cells; resistance factor for L1210/dach versus L1210/0, 4320 min): 41.23
Resistance Factor (R), L1210/DDP (L1210/DDP cells): 6.05
IC50 (L1210/DDP cells): 2360 nM

N.N.[Cl][Pt][Cl] [Cisplatin, cis-[PtCl2 (NH3)2], reference compound]
% T/C, B16 melanoma (B16 melanoma; dose 3 × 5): 170%

[PtCl(R2 SO)(damch)]NO3, R = Me [reference compound]
% T/C, L1210 leukemia (L1210 leukemia; 3 × 100 mg/kg i.p.): 152%
IC50 [1]: 1090 nM
Resistance Factor (R), L1210/DDP (L1210/DDP cells): 3.58
IC50 (L1210/DDP cells): 3900 nM

[PtCl(R2 SO)(damch)]NO3, R = n-Pr
% T/C, L1210 leukemia (L1210 leukemia; 3 × 12.5 mg/kg i.p.): 162%
% T/C, L1210 leukemia (L1210 leukemia; 3 × 25 mg/kg i.p.): 185%
IC50 [1]: 620 nM
Resistance Factor (R), L1210/DDP (L1210/DDP cells): 4.70
IC50 (L1210/DDP cells): 2920 nM

N.N.O=C([O-])C1(C(=O)[O-])CCC1.[Pt+2] [carboplatin, [Pt(NH3)2 (CBDCA)]]
nephrotoxicity [2]: reduction in the severe nephrotoxicity of the parent complex
